Reference: PubChem BioAssay AID1259407 (Chemical Carcinogenesis Research Information System (CCRIS), 2018)
Activity calls are given as the source filed them. How the calls were made is not given here.

Tested on: CCRIS mutagenicity, Ames/micronucleus/aberration tests
Assay: CCRIS mutagenicity studies
[1] = Test System: AMES SALMONELLA TYPHIMURIUM, Strain/Indicator: TA98, Metabolic Activation: NONE, Method: PREINCUBATION
[2] = Test System: AMES SALMONELLA TYPHIMURIUM, Strain/Indicator: TA100, Metabolic Activation: NONE, Method: PREINCUBATION
[3] = Test System: AMES SALMONELLA TYPHIMURIUM, Strain/Indicator: TA1535, Metabolic Activation: NONE, Method: PREINCUBATION
[4] = Test System: AMES SALMONELLA TYPHIMURIUM, Strain/Indicator: TA1537, Metabolic Activation: NONE, Method: PREINCUBATION
[5] = Test System: AMES SALMONELLA TYPHIMURIUM, Strain/Indicator: TA100, Metabolic Activation: NONE, Method: STANDARD PLATE
[6] = Test System: AMES SALMONELLA TYPHIMURIUM, Strain/Indicator: TA100, Metabolic Activation: RAT, LIVER, S-9, AROCLOR 1254, Method: STANDARD PLATE

Compound: CCCCC(CC)COC(=O)CCCCCCCCC(=O)OCC(CC)CCCC (stereo not given)
- mutagenic call (Test System: AMES SALMONELLA TYPHIMURIUM, Strain/Indicator: TA98, Metabolic Activation: HAMSTER, LIVER, S-9, AROCLOR 1254 (10%), Method: PREINCUBATION): inactive; negative
- mutagenic call [1]: inactive; negative
- mutagenic call (Test System: AMES SALMONELLA TYPHIMURIUM, Strain/Indicator: TA98, Metabolic Activation: RAT, LIVER, S-9, AROCLOR 1254 (10%), Method: PREINCUBATION): inactive; negative
- mutagenic call (Test System: AMES SALMONELLA TYPHIMURIUM, Strain/Indicator: TA100, Metabolic Activation: HAMSTER, LIVER, S-9, AROCLOR 1254 (10%), Method: PREINCUBATION): inactive; negative
- mutagenic call [2]: inactive; negative
- mutagenic call (Test System: AMES SALMONELLA TYPHIMURIUM, Strain/Indicator: TA100, Metabolic Activation: RAT, LIVER, S-9, AROCLOR 1254 (10%), Method: PREINCUBATION): inactive; negative
- mutagenic call (Test System: AMES SALMONELLA TYPHIMURIUM, Strain/Indicator: TA1535, Metabolic Activation: HAMSTER, LIVER, S-9, AROCLOR 1254 (10%), Method: PREINCUBATION): inactive; negative
- mutagenic call [3]: inactive; negative
- mutagenic call (Test System: AMES SALMONELLA TYPHIMURIUM, Strain/Indicator: TA1535, Metabolic Activation: RAT, LIVER, S-9, AROCLOR 1254 (10%), Method: PREINCUBATION): inactive; negative
- mutagenic call (Test System: AMES SALMONELLA TYPHIMURIUM, Strain/Indicator: TA1537, Metabolic Activation: HAMSTER, LIVER, S-9, AROCLOR 1254 (10%), Method: PREINCUBATION): inactive; negative
- mutagenic call [4]: inactive; negative
- mutagenic call (Test System: AMES SALMONELLA TYPHIMURIUM, Strain/Indicator: TA1537, Metabolic Activation: RAT, LIVER, S-9, AROCLOR 1254 (10%), Method: PREINCUBATION): inactive; negative
- mutagenic call (Test System: Ames Salmonella typhimurium, Strain/Indicator: TA98, Metabolic Activation: None, Method: Preincubation): inactive; negative
- mutagenic call (Test System: Ames Salmonella typhimurium, Strain/Indicator: TA98, Metabolic Activation: Rat, Liver, S9, Phenobarbital and 5,6-benzoflavone, Method: Preincubation): inactive; negative
- mutagenic call (Test System: Ames Salmonella typhimurium, Strain/Indicator: TA100, Metabolic Activation: None, Method: Preincubation): inactive; negative
- mutagenic call (Test System: Ames Salmonella typhimurium, Strain/Indicator: TA100, Metabolic Activation: Rat, Liver, S9, Phenobarbital and 5,6-benzoflavone, Method: Preincubation): inactive; negative
- mutagenic call (Test System: Ames Salmonella typhimurium, Strain/Indicator: TA1535, Metabolic Activation: None, Method: Preincubation): inactive; negative
- mutagenic call (Test System: Ames Salmonella typhimurium, Strain/Indicator: TA1535, Metabolic Activation: Rat, Liver, S9, Phenobarbital and 5,6-benzoflavone, Method: Preincubation): inactive; negative
- mutagenic call (Test System: Ames Salmonella typhimurium, Strain/Indicator: TA1537, Metabolic Activation: None, Method: Preincubation): inactive; negative
- mutagenic call (Test System: Ames Salmonella typhimurium, Strain/Indicator: TA1537, Metabolic Activation: Rat, Liver, S9, Phenobarbital and 5,6-benzoflavone, Method: Preincubation): inactive; negative
- mutagenic call (Test System: E. coli, Strain/Indicator: WP2uvrA/pKM101, Metabolic Activation: None, Method: Preincubation): inactive; negative
- mutagenic call (Test System: E. coli, Strain/Indicator: WP2uvrA/pKM101, Metabolic Activation: Rat, Liver, S9, Phenobarbital and 5,6-benzoflavone, Method: Preincubation): inactive; negative

Compound: CCN(Cc1ccccc1)c1ccccc1
- mutagenic call (Test System: AMES SALMONELLA TYPHIMURIUM, Strain/Indicator: TA97, Metabolic Activation: HAMSTER, LIVER, S-9, AROCLOR 1254 (10 OR 30%), Method: PREINCUBATION): inactive; negative
- mutagenic call (Test System: AMES SALMONELLA TYPHIMURIUM, Strain/Indicator: TA97, Metabolic Activation: NONE, Method: PREINCUBATION): inactive; negative
- mutagenic call (Test System: AMES SALMONELLA TYPHIMURIUM, Strain/Indicator: TA97, Metabolic Activation: RAT, LIVER, S-9, AROCLOR 1254 (10 OR 30%), Method: PREINCUBATION): inactive; negative
- mutagenic call (Test System: AMES SALMONELLA TYPHIMURIUM, Strain/Indicator: TA98, Metabolic Activation: HAMSTER, LIVER, S-9, AROCLOR 1254 (10 OR 30%), Method: PREINCUBATION): inactive; negative
- mutagenic call [1]: inactive; negative
- mutagenic call (Test System: AMES SALMONELLA TYPHIMURIUM, Strain/Indicator: TA98, Metabolic Activation: RAT LIVER S-9, PHENOBARBITAL AND BETA-NAPHTHOFLAVONE, Method: PREINCUBATION): inactive; negative
- mutagenic call (Test System: AMES SALMONELLA TYPHIMURIUM, Strain/Indicator: TA98, Metabolic Activation: RAT, LIVER, S-9, AROCLOR 1254 (10 OR 30%), Method: PREINCUBATION): inactive; negative
- mutagenic call (Test System: AMES SALMONELLA TYPHIMURIUM, Strain/Indicator: TA100, Metabolic Activation: HAMSTER, LIVER, S-9, AROCLOR 1254 (10 OR 30%), Method: PREINCUBATION): inactive; negative
- mutagenic call [2]: inactive; negative
- mutagenic call (Test System: AMES SALMONELLA TYPHIMURIUM, Strain/Indicator: TA100, Metabolic Activation: RAT LIVER S-9, PHENOBARBITAL AND BETA-NAPHTHOFLAVONE, Method: PREINCUBATION): inactive; negative
- mutagenic call (Test System: AMES SALMONELLA TYPHIMURIUM, Strain/Indicator: TA100, Metabolic Activation: RAT, LIVER, S-9, AROCLOR 1254 (10 OR 30%), Method: PREINCUBATION): inactive; negative
- mutagenic call (Test System: AMES SALMONELLA TYPHIMURIUM, Strain/Indicator: TA1535, Metabolic Activation: HAMSTER, LIVER, S-9, AROCLOR 1254 (10 OR 30%), Method: PREINCUBATION): inactive; negative
- mutagenic call [3]: inactive; negative
- mutagenic call (Test System: AMES SALMONELLA TYPHIMURIUM, Strain/Indicator: TA1535, Metabolic Activation: RAT LIVER S-9, PHENOBARBITAL AND BETA-NAPHTHOFLAVONE, Method: PREINCUBATION): inactive; negative
- mutagenic call (Test System: AMES SALMONELLA TYPHIMURIUM, Strain/Indicator: TA1535, Metabolic Activation: RAT, LIVER, S-9, AROCLOR 1254 (10 OR 30%), Method: PREINCUBATION): inactive; negative
- mutagenic call [4]: inactive; negative
- mutagenic call (Test System: AMES SALMONELLA TYPHIMURIUM, Strain/Indicator: TA1537, Metabolic Activation: RAT LIVER S-9, PHENOBARBITAL AND BETA-NAPHTHOFLAVONE, Method: PREINCUBATION): inactive; negative
- mutagenic call (Test System: AMES SALMONELLA TYPHIMURIUM, Strain/Indicator: TA1538, Metabolic Activation: NONE, Method: PREINCUBATION): inactive; negative
- mutagenic call (Test System: AMES SALMONELLA TYPHIMURIUM, Strain/Indicator: TA1538, Metabolic Activation: RAT LIVER S-9, PHENOBARBITAL AND BETA-NAPHTHOFLAVONE, Method: PREINCUBATION): inactive; negative
- mutagenic call (Test System: E.COLI, Strain/Indicator: WP2UVRA, Metabolic Activation: NONE, Method: PREINCUBATION): inactive; negative
- mutagenic call (Test System: E.COLI, Strain/Indicator: WP2UVRA, Metabolic Activation: RAT LIVER S-9, PHENOBARBITAL AND BETA-NAPHTHOFLAVONE, Method: PREINCUBATION): inactive; negative

Compound: C(=Nc1ccccc1)c1cccc2cccnc12
- mutagenic call (Test System: AMES SALMONELLA TYPHIMURIUM, Strain/Indicator: TA98, Metabolic Activation: NONE, Method: STANDARD PLATE): inactive; negative
- mutagenic call (Test System: AMES SALMONELLA TYPHIMURIUM, Strain/Indicator: TA98, Metabolic Activation: RAT, LIVER, S-9, AROCLOR 1254, Method: STANDARD PLATE): inactive; negative
- mutagenic call [5]: inactive; negative
- mutagenic call [6]: active; positive
- mutagenic call (Test System: AMES SALMONELLA TYPHIMURIUM, Strain/Indicator: TA1535, Metabolic Activation: NONE, Method: STANDARD PLATE): inactive; negative
- mutagenic call (Test System: AMES SALMONELLA TYPHIMURIUM, Strain/Indicator: TA1535, Metabolic Activation: RAT, LIVER, S-9, AROCLOR 1254, Method: STANDARD PLATE): inactive; negative
- mutagenic call (Test System: AMES SALMONELLA TYPHIMURIUM, Strain/Indicator: TA1537, Metabolic Activation: NONE, Method: STANDARD PLATE): inactive; negative
- mutagenic call (Test System: AMES SALMONELLA TYPHIMURIUM, Strain/Indicator: TA1537, Metabolic Activation: RAT, LIVER, S-9, AROCLOR 1254, Method: STANDARD PLATE): inactive; negative

Compound: CC(C)CN(N)CC(C)C
- mutagenic call [5]: active; positive
- mutagenic call [6]: active; positive
- mutagenic call (Test System: AMES SALMONELLA TYPHIMURIUM, Strain/Indicator: TA102, Metabolic Activation: NONE, Method: STANDARD PLATE): inactive; negative
- mutagenic call (Test System: AMES SALMONELLA TYPHIMURIUM, Strain/Indicator: TA102, Metabolic Activation: RAT, LIVER, S-9, AROCLOR 1254, Method: STANDARD PLATE): inactive; negative
